Results taken from US20050227994A1, “Decomposition inhibitor for extracellular matrix of cartilage” (Shionogi & Co., Ltd., priority 2002, published 2005).

Biological target: T1, MMP-13 (Homo sapiens, UniProt P45452)
T1 construct: catalytic domain (^104Tyr˜^267Gly) was amplified with RT-PCR; His-tag; enterokinase digestion-site; made in house
Assay: Assay for inhibitory activities on MMP-13
Format: biochemical
Settings: catalytic domain, substrate MOCAc-Pro-Leu-Gly-Leu-A2Pr(DNP)-Ala-Arg-NH2; read-out: MMP-13 (IC50μM)
Description: In regard to MMP-13, mRNA was prepared from carcinoma cell SW1353 derived from human cartilage stimulate by IL-1, TNF and catalytic domain (^[…]) was amplified with RT-PCR. This was cloned in Escherichia. coli expression vector […] inserted with His-tag sequence and enterokinase digestion-site, induced and expressed by IPTG (Isopropyl-β-D-thiogalactopyranoside) and expressed in a insoluble fraction. Isolation of MMP-13 from an insoluble fraction was carried out by dissolving in modifier (6M urea) by a usual method and purification with metal chelate chromatography (Ni […] Sepharose). […] The enzymatic activity on MMP was analyzed by the method described in “C. Graham Knight, Frances Willenbrock and Gillian Murphy: A novel coumarin-labelled peptide for sensitive continuous assays of the matrix metalloproteinases: […] The substrate: MOCAc-[…] was purchased from Peptide Institute, Inc., Osaka, Japan.

CCC(C)[C@H](NS(=O)(=O)c1ccc(-c2ncc(-c3ccccc3)s2)cc1)C(=O)O (stereo partly drawn) [Compound A-1]
IC50: 0.012 µM

CCC(C)[C@H](NS(=O)(=O)c1ccc(-c2ncc(-c3ccc(OC)cc3)s2)cc1)C(=O)O (stereo partly drawn) [Compound A-2]
IC50: 0.0013 µM

COc1ccc(-c2cnc(-c3ccc(S(=O)(=O)N[C@H](CCSC)C(=O)O)cc3)s2)cc1 [Compound A-3]
IC50: 0.0023 µM

COc1ccc(-c2cnc(-c3ccc(S(=O)(=O)N[C@H](CCC(=O)O)C(=O)O)cc3)s2)cc1 [Compound A-4]
IC50: 0.0024 µM

CC(C)[C@H](NS(=O)(=O)c1ccc(-c2ncc(-c3ccc(Br)cc3)s2)cc1)C(=O)O [Compound A-5]
IC50: 0.002 µM

O=C(O)[C@@H](Cc1ccccc1)NS(=O)(=O)c1ccc(-c2ncc(-c3ccc(Br)cc3)s2)cc1 [Compound A-6]
IC50: 0.0029 µM

O=C(O)[C@H](NS(=O)(=O)c1ccc(-c2ncc(-c3ccc(Br)cc3)s2)cc1)c1ccccc1 [Compound A-7]
IC50: 0.0111 µM

CSCC[C@@H](NS(=O)(=O)c1ccc(-c2ncc(-c3ccc(Br)cc3)s2)cc1)C(=O)O [Compound A-8]
IC50: 0.0038 µM

CC(C)C[C@H](NS(=O)(=O)c1ccc(-c2ncc(-c3ccc(Cl)cc3)s2)cc1)C(=O)O [Compound A-9]
IC50: 0.0065 µM

O=C(O)[C@@H](NS(=O)(=O)c1ccc(-c2ncc(-c3ccc(Cl)cc3)s2)cc1)c1ccccc1 [Compound A-10]
IC50: 0.0246 µM

CC(C)C[C@H](NS(=O)(=O)c1ccc(-c2ncc(-c3ccc(F)cc3)s2)cc1)C(=O)O [Compound A-11]
IC50: 0.0114 µM

C[C@@H](NS(=O)(=O)c1ccc(-c2ncc(-c3ccc4ccccc4c3)s2)cc1)C(=O)O [Compound A-12]
IC50: 0.012 µM

C[C@H](NS(=O)(=O)c1ccc(-c2ncc(-c3ccc4ccccc4c3)s2)cc1)C(=O)O [Compound A-13]
IC50: 0.019 µM

O=C(O)[C@@H](Cc1c[nH]c2ccccc12)NS(=O)(=O)c1ccc(-c2ncc(-c3ccc(F)c(F)c3)s2)cc1 [Compound A-14]
IC50: 0.0061 µM

CSCC[C@@H](NS(=O)(=O)c1ccc(-c2ncc(-c3ccc(Cl)c(Cl)c3)s2)cc1)C(=O)O [Compound A-15]
IC50: 0.0135 µM

O=C(O)C[C@@H](NS(=O)(=O)c1ccc(-c2ncc(-c3ccc(Cl)c(Cl)c3)s2)cc1)C(=O)O [Compound A-16]
IC50: 0.0154 µM

C[C@@H](NS(=O)(=O)c1ccc(-c2ncc(-c3ccc4c(c3)OCO4)s2)cc1)C(=O)O [Compound A-17]
IC50: 0.0065 µM

CC(C)[C@@H](NS(=O)(=O)c1ccc(-c2ncc(-c3ccc4c(c3)OCO4)s2)cc1)C(=O)O [Compound A-18]
IC50: 0.0052 µM

CSCC[C@@H](NS(=O)(=O)c1ccc(-c2ncc(-c3ccc4c(c3)OCO4)s2)cc1)C(=O)O [Compound A-19]
IC50: 0.0092 µM

O=C(O)C[C@@H](NS(=O)(=O)c1ccc(-c2ncc(-c3ccc4c(c3)OCO4)s2)cc1)C(=O)O [Compound A-20]
IC50: 0.0183 µM

CC(C)C[C@@H](NS(=O)(=O)c1ccc(-c2ncc(-c3ccc(Cl)c(Cl)c3)s2)cc1)C(=O)O [Compound A-24]
IC50: 0.0482 µM

CSc1ccc(-c2cnc(-c3ccc(S(=O)(=O)N[C@@H](C(=O)O)C(C)C)cc3)s2)cc1 [Compound A-25]
IC50: 0.00033 µM

CSc1ccc(-c2cnc(-c3ccc(S(=O)(=O)N[C@H](C(=O)O)C(C)C)cc3)s2)cc1 [Compound A-26]
IC50: 0.00045 µM

CSc1ccc(-c2cnc(-c3ccc(S(=O)(=O)N[C@@H](C)C(=O)O)cc3)s2)cc1 [Compound A-27]
IC50: 0.001 µM

COc1ccc(-c2cnc(-c3ccc(S(=O)(=O)N[C@H](CCC(=O)O)C(=O)O)cc3)o2)cc1 [Compound B-1]
IC50: 0.0199 µM

C[C@H](NS(=O)(=O)c1ccc(-c2ncc(-c3ccc4ccccc4c3)o2)cc1)C(=O)O [Compound B-2]
IC50: 0.763 µM

O=C(O)[C@@H](Cc1ccccc1)NS(=O)(=O)c1ccc(-c2ncc(-c3ccc(Cl)cc3)o2)cc1 [Compound B-3]
IC50: 0.0443 µM

O=C(O)[C@@H](Cc1ccccc1)NS(=O)(=O)c1ccc(-c2ncc(-c3ccc(Cl)c(Cl)c3)o2)cc1 [Compound B-5]
IC50: 0.0169 µM

CCc1ccc(-c2nc(-c3ccc(S(=O)(=O)N[C@@H](C(=O)O)C(C)C)cc3)no2)cc1 [Compound C-1]
IC50: 0.01 µM

CCc1ccc(-c2nc(-c3ccc(S(=O)(=O)N[C@H](Cc4ccccc4)C(=O)O)cc3)no2)cc1 [Compound C-2]
IC50: 0.027 µM

CC(C)c1ccc(-c2nc(-c3ccc(S(=O)(=O)N[C@H](C)C(=O)O)cc3)no2)cc1 [Compound C-3]
IC50: 0.0113 µM

CC(C)c1ccc(-c2nc(-c3ccc(S(=O)(=O)N[C@@H](C(=O)O)C(C)C)cc3)no2)cc1 [Compound C-4]
IC50: 0.0057 µM

CSCC[C@@H](NS(=O)(=O)c1ccc(-c2noc(-c3ccc(C(C)C)cc3)n2)cc1)C(=O)O [Compound C-6]
IC50: 0.018 µM

CC(C)c1ccc(-c2nc(-c3ccc(S(=O)(=O)N[C@H](CC(=O)O)C(=O)O)cc3)no2)cc1 [Compound C-7]
IC50: 0.0196 µM

O=C(O)[C@H](Cc1ccccc1)NS(=O)(=O)c1ccc(-c2noc(-c3ccc4c(c3)OCO4)n2)cc1 [Compound C-8]
IC50: 0.049 µM

O=C(O)[C@H](Cc1ccccc1)NS(=O)(=O)c1ccc(-c2noc(-c3ccc4cc(Br)ccc4c3)n2)cc1 [Compound C-9]
IC50: > 10 µM

CSc1ccc(-c2nc(-c3ccc(S(=O)(=O)N[C@H](Cc4ccccc4)C(=O)O)cc3)no2)cc1 [Compound C-10]
IC50: 0.0174 µM

CCCCc1ccc(-c2noc(-c3ccc(S(=O)(=O)N[C@@H](C(=O)O)C(C)C)cc3)n2)cc1 [Compound D-1]
IC50: 0.028 µM

O=C(O)[C@@H](Cc1ccccc1)NS(=O)(=O)c1ccc(-c2nc(-c3ccc(Cl)cc3)no2)cc1 [Compound D-2]
IC50: 0.141 µM

CCCCc1ccc(-c2noc(-c3ccc(S(=O)(=O)N[C@H](Cc4ccccc4)C(=O)O)cc3)n2)cc1 [Compound D-3]
IC50: 0.1 µM

O=C(O)[C@@H](Cc1ccccc1)NS(=O)(=O)c1ccc(-c2nc(-c3ccc(C(F)(F)F)cc3)no2)cc1 [Compound D-4]
IC50: 0.167 µM

O=C(O)[C@@H](Cc1ccccc1)NS(=O)(=O)c1ccc(-c2nc(-c3ccc4ccccc4c3)no2)cc1 [Compound D-5]
IC50: 1.01 µM

O=C(O)[C@@H](Cc1ccccc1)NS(=O)(=O)c1ccc(-c2nc(-c3ccc(Cl)c(Cl)c3)no2)cc1 [Compound D-6]
IC50: 0.764 µM

CC(C)C(NS(=O)(=O)c1ccc(-c2ccccc2)cc1)C(=O)O (stereo not drawn) [Compound E-1]
IC50: 0.4 µM

Cc1ccc(-c2ccc(S(=O)(=O)N[C@H](Cc3c[nH]c4ccccc34)C(=O)O)cc2)cc1 [Compound E-2]
IC50: 0.00877 µM

CC(C)C(NS(=O)(=O)c1ccc(-c2ccc(Cl)cc2)cc1)C(=O)O (stereo not drawn) [Compound E-3]
IC50: 0.083 µM

CSc1ccc(-c2ccc(S(=O)(=O)NC(C)C(=O)O)cc2)cc1 (stereo not drawn) [Compound E-4]
IC50: 0.0209 µM

CCC(C)C(NS(=O)(=O)c1ccc(-c2ccc(SC)cc2)cc1)C(=O)O (stereo not drawn) [Compound E-5]
IC50: 0.0022 µM

CSc1ccc(-c2ccc(S(=O)(=O)NC(Cc3ccccc3)C(=O)O)cc2)cc1 (stereo not drawn) [Compound E-6]
IC50: 0.0026 µM

CSCC[C@@H](NS(=O)(=O)c1ccc(-c2ccc(SC)cc2)cc1)C(=O)O [Compound E-7]
IC50: 0.0197 µM

CSCC[C@H](NS(=O)(=O)c1ccc(-c2ccc(SC)cc2)cc1)C(=O)O [Compound E-8]
IC50: 0.0105 µM

CSc1ccc(-c2ccc(S(=O)(=O)N[C@H](CC(=O)O)C(=O)O)cc2)cc1 [Compound E-9]
IC50: 0.0132 µM

CSc1ccc(-c2ccc(S(=O)(=O)N[C@H](CCC(=O)O)C(=O)O)cc2)cc1 [Compound E-10]
IC50: 0.0236 µM

CSc1ccc(-c2ccc(S(=O)(=O)N[C@@H](CCC(=O)O)C(=O)O)cc2)cc1 [Compound E-11]
IC50: 0.0091 µM

CSc1ccc(-c2ccc(S(=O)(=O)N[C@H](CO)C(=O)O)cc2)cc1 [Compound E-12]
IC50: 0.0165 µM

CSc1ccc(-c2ccc(S(=O)(=O)NC(C(=O)O)c3cccs3)cc2)cc1 (stereo not drawn) [Compound E-13]
IC50: 0.0254 µM

CCSc1ccc(-c2ccc(S(=O)(=O)NC(C)C(=O)O)cc2)cc1 (stereo not drawn) [Compound E-14]
IC50: 0.0135 µM

CCSc1ccc(-c2ccc(S(=O)(=O)NC(C(=O)O)C(C)C)cc2)cc1 (stereo not drawn) [Compound E-15]
IC50: 0.0195 µM

CCSc1ccc(-c2ccc(S(=O)(=O)NC(Cc3ccccc3)C(=O)O)cc2)cc1 (stereo not drawn) [Compound E-16]
IC50: 0.0142 µM

CCSc1ccc(-c2ccc(S(=O)(=O)NC(C(=O)O)C(C)CC)cc2)cc1 (stereo not drawn) [Compound E-17]
IC50: 0.0067 µM

CCc1ccc(-c2ccc(S(=O)(=O)NC(C(=O)O)C(C)C)cc2)cc1 (stereo not drawn) [Compound E-18]
IC50: 0.0204 µM

CCOc1ccc(-c2ccc(S(=O)(=O)NC(C(=O)O)C(C)C)cc2)cc1 (stereo not drawn) [Compound E-19]
IC50: 0.0122 µM

CC(C)C(NS(=O)(=O)c1ccc(-c2ccc(OC(F)(F)F)cc2)cc1)C(=O)O (stereo not drawn) [Compound E-20]
IC50: 0.0141 µM

CSc1ccc(-c2ccc(-c3ccc(S(=O)(=O)N[C@@H](C(=O)O)C(C)C)cc3)cc2)cc1 [Compound E-21]
IC50: 0.002 µM

CC(C)[C@@H](NS(=O)(=O)c1ccc(-c2ccc(-c3ccc4ccccc4c3)cc2)cc1)C(=O)O [Compound E-22]
IC50: 0.0139 µM

O=C(O)[C@@H](Cc1ccc(-c2ccccc2)cc1)NS(=O)(=O)c1ccc(-c2ccccc2)cc1 [Compound E-23]
IC50: 1.06 µM

CC(C)[C@@H](NS(=O)(=O)c1ccc(-c2ccc(-c3ccccc3)cc2)cc1)C(=O)O [Compound E-24]
IC50: 0.024 µM

CC(C)(C)c1ccc(-c2ccc(S(=O)(=O)NC(Cc3ccccc3)C(=O)O)cc2)cc1 (stereo not drawn) [Compound E-25]
IC50: 0.39 µM

O=C(O)C(Cc1ccccc1)NS(=O)(=O)c1ccc(-c2ccc(F)cc2)cc1 (stereo not drawn) [Compound E-26]
IC50: 0.21 µM
